# Molecular target: T1, Angiotensin II-receptor (Rattus norvegicus, UniProt P25095)
# T1 construct: The tissue (rats lung) is homogenised in Tris-buffer; from tissue; host or cells: rat lung homogenate (washed 20,000×g pellet)
# T1 sequence (P25095 1-359): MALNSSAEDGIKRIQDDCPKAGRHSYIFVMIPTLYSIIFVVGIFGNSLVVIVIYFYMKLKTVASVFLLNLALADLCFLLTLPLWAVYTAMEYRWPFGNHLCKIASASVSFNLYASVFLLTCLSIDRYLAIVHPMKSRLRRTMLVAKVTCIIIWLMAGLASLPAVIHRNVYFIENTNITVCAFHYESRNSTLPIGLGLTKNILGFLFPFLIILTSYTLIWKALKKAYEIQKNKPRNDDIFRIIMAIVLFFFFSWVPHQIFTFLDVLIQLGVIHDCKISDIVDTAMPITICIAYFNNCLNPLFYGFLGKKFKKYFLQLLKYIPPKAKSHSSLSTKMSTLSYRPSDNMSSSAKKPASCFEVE
# Assay: Angiotensin II-receptor bonding
# Format: binding
# Details: rats lung homogenate; 50 pM [125I]-angiotensin II; 60 minutes at 37° C., pH 7.40
# Procedure: Description of method: Angiotensin II-receptor bonding
# The tissue (rats lung) is homogenised in Tris-buffer (50 mMol Tris, 150 mMol NaCl, 5 mMol EDTA, pH 7.40) and centrifuged twice for 20 minutes at 20,000×g. The finished pellets are resuspended in incubating buffer (50 mMol Tris, 5 mMol MgCl2, 0.2% BSA, pH 7.40) 1:75, based on the moist weight of the tissue. Each 0.1 ml of homogenate is incubated for 60 minutes at 37° C. with 50 pM [^125 I]-angiotensin II (NEN, Dreieich, FRG) with increasing concentrations of the test substance in a total volume of 0.25 ml. Incubation is ended by rapid filtration through glass fiber filter mats. The filters are each washed with 4 ml of ice cold buffer (25 mMol Tris, 2.5 mMol MgCl2, 0.1% BSA, pH 7.40). The bound radioactivity is measured using a gamma-counter. The corresponding IC50 value is obtained from the dose-activity curve.
row,SMILES,IC50 [nM]
1,"CCCc1nc2c(C)cc(-c3nc4ccccc4n3C)cc2n1Cc1ccc2nc(-c3ccccc3)n(CC(=O)O)c2c1 [Substance B, 1-hydroxycarbonylmethyl-2-phenyl-6-[(2-n-propyl-4-methyl-6-(1-methyl-benzimidazol-2-yl)-benzimidazol-1-yl)-methyl]-benzimidazole]",23
2,"CCc1nc2c(C)cc(C)nc2n1Cc1ccc2c(c1)nc(-c1ccccc1)n2CC(=O)O [Substance A, 1-hydroxycarbonylmethyl-2-phenyl-5-[(2-ethyl-4,6-dimethyl-imidazo[4,5-b]pyridin-1-yl)-methyl]-benzimidazole-trihydrate]",120
3,"CCCc1nc2c(C)cc(-c3nc4ccccc4n3C)cc2n1Cc1ccc2c(c1)nc(-c1ccccc1)n2Cc1nnn[nH]1 [Substance C, 1-[(1H-tetrazol-5-yl)-methyl]-2-phenyl-5-[(2-n-propyl-4-methyl-6-(1-methyl-benzimidazol-2-yl)-benzimidazol-1-yl)-methyl]-benzimidazole]",2.3

# — patent US5459147A, “Substituted benzimidazolyl derivatives and pharmaceutical compositions containing these compounds” (Dr. Karl Thomae GmbH, priority 1992, dated 1995)
